{"source": "patent EP1913949A1", "about": "“Modulation of substrate preference by selective translocation of the major cardiac glucose transporter Glut4” (priority 2006, dated 2008)", "key": {"[1]": {"system": "heart-derived giant vesicles", "experiment": "glucose uptake by giant vesicles (intrinsic transporter activity)", "type": "biochemical, rat", "details": "for glucose uptake into giant vesicles inhibited: inhibitor 10 µM"}, "cardiac myocytes [2]": {"system": "cardiac myocytes"}, "ACC [3]": {"system": "ACC"}, "Akt/PKB": {"system": "Akt/PKB", "type": "cell-based, rat", "details": "for effect on Akt/PKB phosphorylation: 20 min"}, "p38 MAPK [4]": {"system": "p38 MAPK"}, "cardiac myocytes [5]": {"system": "cardiac myocytes", "details": "for effect on LCFA uptake: in the absence or in the presence of insulin or arsenite, SB202190 (10 µM), PD98059 (10 µM), rapamycin (100 nM)"}, "FABPpm": {"system": "FABPpm", "type": "cell-based, rat"}, "cardiac myocytes [6]": {"system": "cardiac myocytes", "experiment": "tissue or blood", "details": "Rattus norvegicus"}, "CD36": {"system": "CD36", "type": "cell-based, rat"}, "ACC [7]": {"system": "ACC", "experiment": "cells", "details": "Rattus norvegicus, 20 min, read-out: increase in phosphorylation of ACC"}, "AMPK [8]": {"system": "AMPK", "experiment": "cells", "details": "Rattus norvegicus, 20 min, read-out: increase in phosphorylation of AMPK"}, "p38 MAPK [9]": {"system": "p38 MAPK", "experiment": "cells", "details": "Rattus norvegicus, 20 min, read-out: increase in p38 MAPK phosphorylation"}, "AMPK [10]": {"system": "AMPK", "details": "20 min"}, "[11]": {"system": "heart-derived giant vesicles", "type": "biochemical, rat"}, "[12]": {"details": "PD98059 (10 µM), rapamycin (100 nM), wortmannin (200 nM), no stimulus"}, "[13]": {"details": "SB202190, PD98059 10 µM, rapamycin 20 nM, wortmannin 200 nM, stimulus 5 µM oligomycin"}, "[14]": {"details": "SB202190, PD98059 10 µM, rapamycin 20 nM, wortmannin 200 nM, stimulus 100 µM arsenite"}, "[15]": {"details": "SB202190, PD98059 10 µM, rapamycin 20 nM, wortmannin 200 nM, stimulus 100 nM insulin"}, "[16]": {"details": "SB202190, SB203580, PD98059 10 µM, rapamycin 20 nM, stimulus 100 µM arsenite"}, "[17]": {"details": "SB202190, PD98059 10 µM, rapamycin 20 nM, wortmannin 200 nM, stimulus 50 µM phenylephrine"}, "[18]": {"details": "10 µM SB202190 added 20 min prior to 100 µM arsenite"}, "[19]": {"details": "read-out: basal glucose uptake inhibited"}, "[20]": {"details": "read-out: glucose uptake inhibited in cardiac myocytes"}, "[21]": {"details": "read-out: glucose uptake inhibited in the presence of arsenite"}, "[22]": {"details": "read-out: glucose uptake inhibited in the presence of insulin"}}, "note": "Like-named read-outs stand apart in the source and are kept apart here.", "data": [{"compound": "COc1cccc(-c2cc(=O)c3ccccc3o2)c1N", "note": "[PD98059]", "values": [{"measurement": "effect on glucose uptake into giant vesicles", "setting": "[1]; same concentrations as in cardiac myocyte studies, added 20 min prior", "value": "did not alter"}, {"measurement": "effect on arsenite-stimulated glucose uptake", "setting": "cardiac myocytes [2]; PD98059 (10 µM), rapamycin (100 nM), wortmannin (200 nM), 100 µM arsenite", "value": "neither PD98059 nor rapamycin affected glucose uptake"}, {"measurement": "effect on insulin-stimulated glucose uptake", "setting": "cardiac myocytes [2]; PD98059 (10 µM), rapamycin (100 nM), wortmannin (200 nM), insulin", "value": "neither PD98059 nor rapamycin affected glucose uptake"}, {"measurement": "effect on basal glucose uptake", "setting": "cardiac myocytes [2]; [12]", "value": "no effect"}, {"measurement": "inhibition of oligomycin-induced ACC phosphorylation", "setting": "ACC [3]; [13]", "value": "did not inhibit"}, {"measurement": "inhibition of arsenite-induced p70 S6K phosphorylation", "setting": "p70 S6K; [14]", "value": "did not inhibit"}, {"measurement": "inhibition of insulin-induced Akt/PKB phosphorylation", "setting": "Akt/PKB; [15]", "value": "did not inhibit"}, {"measurement": "inhibition of arsenite-stimulated p38 MAPK phosphorylation", "setting": "p38 MAPK [4]; [16]", "value": "did not inhibit"}, {"measurement": "effect on LCFA uptake", "setting": "cardiac myocytes [5]", "value": "neither SB202190, nor PD98059 or rapamycin were able to influence"}, {"measurement": "inhibition of phenylephrine-induced p42/44 ERK phosphorylation", "setting": "p42/44 ERK; [17]", "value": "completely inhibited"}]}, {"compound": "Oc1ccc(-c2nc(-c3ccncc3)c(-c3ccc(F)cc3)[nH]2)cc1", "note": "[SB202190]", "values": [{"measurement": "effect on subcellular distribution of FABPpm", "setting": "FABPpm; [18]", "value": "did not influence"}, {"measurement": "glucose uptake into giant vesicles inhibited", "setting": "[1]; added 20 min prior", "value": -27, "unit": "%"}, {"measurement": "inhibition at 10 µM", "setting": "cardiac myocytes [6]; [19]", "value": -45, "unit": "%"}, {"measurement": "inhibition at 10 µM", "setting": "cardiac myocytes [6]; [20]", "value": -33, "unit": "%"}, {"measurement": "inhibition at 10 µM", "setting": "cardiac myocytes [6]; [21]", "value": -42, "unit": "%"}, {"measurement": "inhibition at 10 µM", "setting": "cardiac myocytes [6]; [22]", "value": -33, "unit": "%"}, {"measurement": "effect on subcellular distribution of CD36", "setting": "CD36; [18]", "value": "did not influence"}, {"measurement": "inhibition of oligomycin-induced ACC phosphorylation", "setting": "ACC [3]; [13]", "value": "did not affect"}, {"measurement": "inhibition of arsenite-induced p70 S6K phosphorylation", "setting": "p70 S6K; [14]", "value": "did not affect"}, {"measurement": "inhibition of insulin-induced Akt/PKB phosphorylation", "setting": "Akt/PKB; [15]", "value": "did not affect"}, {"measurement": "effect on arsenite-induced GLUT4 translocation", "setting": "GLUT4; [18]", "value": "did not affect"}, {"measurement": "inhibition of arsenite-stimulated p38 MAPK phosphorylation", "setting": "p38 MAPK [4]; [16]", "value": "largely inhibited"}, {"measurement": "effect on LCFA uptake", "setting": "cardiac myocytes [5]", "value": "neither SB202190, nor PD98059 or rapamycin were able to influence"}, {"measurement": "inhibition of phenylephrine-induced p42/44 ERK phosphorylation", "setting": "p42/44 ERK; [17]", "value": "did not affect"}]}, {"compound": "C[S+]([O-])c1ccc(-c2nc(-c3ccncc3)c(-c3ccc(F)cc3)[nH]2)cc1", "note": "(stereo not drawn) [SB203580]", "values": [{"measurement": "glucose uptake into giant vesicles inhibited", "setting": "[1]; added 20 min prior", "value": -46, "unit": "%"}, {"measurement": "inhibition at 10 µM", "setting": "cardiac myocytes [6]; [19]", "value": -56, "unit": "%"}, {"measurement": "inhibition at 10 µM", "setting": "cardiac myocytes [6]; [20]", "value": -56, "unit": "%"}, {"measurement": "inhibition at 10 µM", "setting": "cardiac myocytes [6]; [21]", "value": -57, "unit": "%"}, {"measurement": "inhibition at 10 µM", "setting": "cardiac myocytes [6]; [22]", "value": -46, "unit": "%"}, {"measurement": "inhibition of arsenite-stimulated p38 MAPK phosphorylation", "setting": "p38 MAPK [4]", "value": "similarly potent in blocking"}]}, {"compound": "CC[C@H]1/C=C/C=C/C[C@@H](C)[C@H](O)[C@@](C)(O)C(=O)[C@@H](C)[C@H](O)[C@@H](C)C(=O)[C@@H](C)[C@H](O)[C@@H](C)/C=C/C(=O)O[C@@H]2[C@H](C)[C@H](CC1)O[C@]1(CC[C@H](C)[C@H](C[C@@H](C)O)O1)[C@H]2C", "note": "[oligomycin]", "values": [{"measurement": "fold induction at 5 µM", "setting": "ACC [7]", "value": "> 10"}, {"measurement": "fold induction at 5 µM", "setting": "cardiac myocytes [6]; read-out: glucose uptake increased", "value": 2.9}, {"measurement": "fold induction at 5 µM", "setting": "AMPK [8]", "value": "> 10"}, {"measurement": "effect on p70 S6K phosphorylation", "setting": "p70 S6K; oligomycin", "value": "did not enhance"}, {"measurement": "fold induction at 5 µM", "setting": "p38 MAPK [9]", "value": "5.7 ± 1.5"}, {"measurement": "effect on Akt/PKB phosphorylation", "setting": "Akt/PKB; 5 µM oligomycin or 100 µM arsenite", "value": "did not increase"}, {"measurement": "effect on p42/44 ERK phosphorylation", "setting": "p42/44 ERK; 20 min, 5 µM oligomycin", "value": "did not increase"}]}, {"compound": "CO[C@H]1C[C@@H]2CC[C@@H](C)[C@@](O)(O2)C(=O)C(=O)N2CCCC[C@H]2C(=O)O[C@H]([C@H](C)C[C@@H]2CC[C@@H](O)[C@H](OC)C2)CC(=O)[C@H](C)/C=C(\\C)[C@@H](O)[C@@H](OC)C(=O)[C@H](C)C[C@H](C)/C=C/C=C/C=C/1C", "note": "[rapamycin]", "values": [{"measurement": "effect on basal glucose uptake", "setting": "cardiac myocytes [2]; [12]", "value": "no effect"}]}, {"compound": "COC[C@H]1OC(=O)c2coc3c2[C@@]1(C)C1=C(C3=O)[C@@H]2CCC(=O)[C@@]2(C)C[C@H]1OC(C)=O", "note": "[wortmannin]", "values": [{"measurement": "effect on glucose uptake into giant vesicles", "setting": "[1]", "value": "did not alter"}, {"measurement": "effect on arsenite-stimulated glucose uptake", "setting": "cardiac myocytes [2]", "value": "completely failed to inhibit"}, {"measurement": "effect on basal glucose uptake", "setting": "cardiac myocytes [2]", "value": "did not inhibit"}, {"measurement": "effect on insulin-stimulated glucose uptake", "setting": "cardiac myocytes [2]", "value": "largely blocked"}, {"measurement": "inhibition of oligomycin-induced ACC phosphorylation", "setting": "ACC [3]", "value": "unaltered"}, {"measurement": "inhibition of arsenite-induced p70 S6K phosphorylation", "setting": "p70 S6K", "value": "completely blocked"}, {"measurement": "inhibition of insulin-induced Akt/PKB phosphorylation", "setting": "Akt/PKB", "value": "completely blocked"}, {"measurement": "effect on basal LCFA uptake", "setting": "cardiac myocytes [5]", "value": "no effect"}, {"measurement": "effect on insulin-induced LCFA uptake", "setting": "cardiac myocytes [5]", "value": "completely blocked"}, {"measurement": "inhibition of phenylephrine-induced p42/44 ERK phosphorylation", "setting": "p42/44 ERK", "value": "unaltered"}]}, {"compound": "sodium arsenite", "values": [{"measurement": "distribution of FABPpm between the LDM and the PM fraction", "setting": "FABPpm; 20 min", "value": "did not significantly influence"}, {"measurement": "effect on glucose uptake into giant vesicles", "setting": "[1]", "value": "did not influence"}, {"measurement": "deoxyglucose uptake", "setting": "cardiac myocytes [2]", "value": "without a further increase"}, {"measurement": "effect of arsenite on glucose uptake in combination with oligomycin", "setting": "cardiac myocytes [2]", "value": "retained its stimulatory action"}, {"measurement": "effect of arsenite on glucose uptake in insulin-stimulated cardiac myocytes", "setting": "cardiac myocytes [2]", "value": "ineffective"}, {"measurement": "deoxyglucose uptake stimulated", "setting": "cardiac myocytes [2]; cardiac myocytes, 20 min, 100 µM", "value": 5.1, "unit": "fold"}, {"measurement": "contents of CD36 in the LDM- and PM fractions", "setting": "CD36; 20 min", "value": "did not significantly influence"}, {"measurement": "effect on phosphorylation of AMPK", "setting": "AMPK [10]", "value": "remained unaltered"}, {"measurement": "effect on phosphorylation of ACC", "setting": "ACC [3]; 20 min", "value": "remained unaltered"}, {"measurement": "increase in p70 S6K phosphorylation", "setting": "p70 S6K; 20 min, 100 µM", "value": "3.3 ± 0.7", "unit": "fold"}, {"measurement": "effect on Akt/PKB phosphorylation", "setting": "Akt/PKB", "value": "did not stimulate"}, {"measurement": "effect on LCFA uptake into giant vesicles", "setting": "[11]", "value": "did not influence"}, {"measurement": "content of GLUT4 in the LDM fraction decreased", "setting": "GLUT4; 20 min", "value": 44, "unit": "%"}, {"measurement": "content of GLUT4 in the PM fraction increased", "setting": "GLUT4; 20 min, 100 µM", "value": 1.7, "unit": "fold"}, {"measurement": "increase in p38 MAPK phosphorylation", "setting": "p38 MAPK [4]; 20 min", "value": "7.8 ± 1.8", "unit": "fold"}, {"measurement": "LCFA uptake", "setting": "cardiac myocytes [5]", "value": "did not increase"}, {"measurement": "effect of arsenite on LCFA uptake in combination with insulin or oligomycin", "setting": "cardiac myocytes [5]", "value": "did not significantly alter"}, {"measurement": "increase in p42/44 ERK phosphorylation", "setting": "p42/44 ERK; 20 min, 100 µM", "value": "2.3 ± 0.5", "unit": "fold"}]}]}
